The text below walks through data of the NIST ThermoML archive (doi:10.1016/j.jct.2018.05.018).

Molecules are shown by their SMILES. ± gives the expanded uncertainty stated by the source.

One may read the mass density as the mass of a sample divided by its volume.

For the series the following is noted: 100 kPa, Liquid, Vibrating tube method.

For the molecule `CCO` [ethanol], the mass density was determined as 789.48 ± 1.5 kg/m3 (293.15 K); 785.12 ± 1.5 kg/m3 (298.15 K); 780.86 ± 1.5 kg/m3 (303.15 K); 776.48 ± 1.5 kg/m3 (308.15 K); 772.17 ± 1.5 kg/m3 (313.15 K); 767.6 ± 1.5 kg/m3 (318.15 K). The mass density (323.15 K) worked out at 763.22 ± 1.5 kg/m3.

In the case of `CO` [methanol], the mass density reads like this: (293.15 K) 791.41 ± 1.5 kg/m3; (298.15 K) 786.65 ± 1.5 kg/m3; (303.15 K) 781.85 ± 1.5 kg/m3; (308.15 K) 776.95 ± 1.5 kg/m3; (313.15 K) 771.97 ± 1.5 kg/m3.

Regarding `CCCO` [propan-1-ol], the mass density was 803.52 ± 1.5 kg/m3 (293.15 K); 799.52 ± 1.5 kg/m3 (298.15 K); 795.5 ± 1.5 kg/m3 (303.15 K); 791.43 ± 1.5 kg/m3 (308.15 K); 787.31 ± 1.5 kg/m3 (313.15 K); 783.11 ± 1.5 kg/m3 (318.15 K). The mass density (323.15 K) was 778.79 ± 1.5 kg/m3.
